{
  "source": "paper PMC10380194",
  "about": "“Conferring High IAA Productivity on Low-IAA-Producing Organisms with PonAAS2, an Aromatic Aldehyde Synthase of a Galling Sawfly, and Identification of Its Inhibitor” (Insects, 2023)",
  "key": {"PonAAS1": {"target": "T1, PonAAS1", "T1 construct": "recombinant, fusion protein with trigger factor (pCOLD TF)", "test": "enzyme inhibition of 5-HTrp→serotonin conversion, dose-response", "type": "biochemical, Pontania sp."}, "PonAAS2": {"target": "T2, PonAAS2", "T2 construct": "recombinant, fusion protein with trigger factor (pCOLD TF)", "test": "enzyme inhibition of Trp→IAAld conversion, Lineweaver-Burk kinetics (IC50 […])", "type": "biochemical, Pontania sp."}},
  "data": [
    {"compound": "Oc1ccccc1-c1nc(-c2ccc3c(c2)CCO3)n[nH]1", "note": "[HTS10550, 2-[3-(2,3-dihydro-1-benzofuran-5-yl)-1H-1,2,4-triazol-5-yl]phenol]", "values": [
      {"measurement": "IC50", "setting": "PonAAS1", "value": "~20", "unit": "µM"},
      {"measurement": "Ki", "setting": "PonAAS2", "value": 0.2, "unit": "µM"}
    ]}
  ]
}
